Data from US20200157088A1, “BENZENE FUSED HETEROCYCLIC COMPOUND AND USE THEREOF” (TAIWANJ PHARMACEUTICALS CO., LTD., priority 2017, published 2020).

Target: T1, autotaxin (Homo sapiens, UniProt Q13822)
T1 construct: purchased Cayman 10803
Test: Autotaxin inhibitor screening assay (choline release from LPC)
Type: biochemical
Details: not given
Description: Autotaxin activity was measured by choline release from LPC in presence or absence of compound.
Twenty (20) ng autotaxin (10803, Cayman, MI, USA) was incubated with 100 μM 14:0 LPC (855575P, Avanti, AL, USA) in a final volume of 100 μL buffer containing 50 mM Tris pH 8.0, 0.01% Triton X-100, 50 mM CaCl2, 1 unit/ml choline oxidase, 2 unit/ml HRP, 2 mM homovanilic acid (HVA). The relative amount of released choline was measured by HVA fluorescence in a 96-well plate. Fluorescent intensity was determined at λex/λem=320/450 nm every 60 seconds for 90 minutes with a SpectraMax i3 (Molecular Devices, CA, USA). Data analysis was performed using GraphPad Prism (GraphPad, La Jolla Calif., USA).
Inhibition %=[1−SlopeTA−SlopeBlank)/(Slopevehicle−SlopeBlank)]×100%

SMILES	inhibition at 1 µM [%]
CN(c1nc(-c2ccccc2)cs1)C1CCc2ccc(N3CCN(CC(=O)N4CC(O)C4)CC3)cc21 (centres unmarked) [Compound 44]	< 50
CN(c1nc(-c2ccc(Cl)cc2)c(C#N)s1)C1CCCc2ccc(N3CCN(CC(=O)N4CC(O)C4)CC3)cc21 (centres unmarked) [Compound 51]	< 50

Same assay, conditions: inhibition of autotaxin enzyme activity at 1 μM compound; 100 μM 14:0 LPC; read-out: Inhibition

SMILES	inhibition at 1 µM [%]
CN(C(=O)OCc1cc(Cl)cc(Cl)c1)C1CCc2ccc(N3CCN(CC(=O)N4CC(O)C4)CC3)cc21 (centres unmarked) [Compound 33, 3,5-dichlorobenzyl (6-(4-(2-(3-hydroxyazetidin-1-yl)-2-oxoethyl)piperazin-1-yl)-2,3-dihydro-1H-inden-1-yl)(methyl)carbamate]	50 to 80
CN(C(=O)OCc1cc(Cl)cc(Cl)c1)C1CCc2ccc(N3CCN(C(=O)CN4C(=O)CSC4=S)CC3)cc21 (centres unmarked) [Compound 36]	> 80
CN(C(=O)OCc1cc(Cl)cc(Cl)c1)C1CCCc2ccc(N3CCN(CC(=O)N4CC(O)C4)CC3)cc21 (centres unmarked) [Compound 38]	< 50
CN(c1nc(-c2ccc(F)cc2)c(C#N)s1)C1CCCc2ccc(N3CCN(CC(=O)N4CC(O)C4)CC3)cc21 (centres unmarked) [Compound 53]	< 50
CN(c1nc(-c2ccc(Cl)cc2)c(C#N)s1)C1CCc2ccc(N3CCN(C(=O)CN4C(=O)CSC4=S)CC3)cc21 (centres unmarked) [Compound 54]	< 50
CN(c1nc(-c2ccc(Cl)cc2)c(C#N)s1)C1CCc2ccc(C3=CCN(CC(=O)N4CC(O)C4)CC3)cc21 (centres unmarked) [Compound 58, 4-(4-chlorophenyl)-2-((6-(1-(2-(3-hydroxyazetidin-1-yl)-2-oxoethyl)-1,2,3,6-tetrahydropyridin-4-yl)-2,3-dihydro-1H-inden-1-yl)(methyl)amino)thiazole-5-carbonitrile]	< 50
CCC1Cc2ccc(C3=CCN(CC(=O)N4CC(O)C4)CC3)cc2C1N(C)c1nc(-c2cc(Cl)cc(Cl)c2)c(C#N)s1 (centres unmarked) [Compound 61]	< 50

Further lines, results first:

inhibition at 1 µM [%]	SMILES
50 to 80	CN(C(=O)OCc1cc(Cl)cc(Cl)c1)C1CCc2ccc(N3CCN(C(=O)CN4CCOCC4)CC3)cc21 (centres unmarked) [Compound 34, 3,5-dichlorobenzyl methyl(6-(4-(2-morpholinoacetyl)piperazin-1-yl)-2,3-dihydro-1H-inden-1-yl)carbamate]
50 to 80	CN(C(=O)OCc1cc(Cl)cc(Cl)c1)C1CCc2ccc(N3CCN(C(=O)CS(C)(=O)=O)CC3)cc21 (centres unmarked) [Compound 37]
< 50	CN(c1nc(-c2ccc(F)cc2)cs1)C1CCc2ccc(N3CCN(CC(=O)N4CC(O)C4)CC3)cc21 (centres unmarked) [Compound 43, 2-(4-(3-((4-(4-fluorophenyl)thiazol-2-yl)(methyl)amino)-2,3-dihydro-1H-inden-5-yl)piperazin-1-yl)-1-(3-hydroxyazetidin-1-yl)ethan-1-one]
< 50	CN(c1nc(-c2ccc(F)cc2)c(C#N)s1)C1CCc2ccc(N3CCN(CC(=O)N4CC(O)C4)CC3)cc21 (centres unmarked) [Compound 50, 4-(4-fluorophenyl)-2-((6-(4-(2-(3-hydroxyazetidin-1-yl)-2-oxoethyl)piperazin-1-yl)-2,3-dihydro-1H-inden-1-yl)(methyl)amino)thiazole-5-carbonitrile]
< 50	CN(c1nc(-c2ccc(Cl)cc2)c(C#N)s1)C1CCc2ccc(N3CCN(CC(=O)N4CC(O)C4)CC3)cc21 (centres unmarked) [Compound 52]
< 50	CN(c1nc(-c2cc(Cl)cc(Cl)c2)c(C#N)s1)C1CCc2ccc(C3=CCN(CC(=O)N4CC(O)C4)CC3)cc21 (centres unmarked) [Compound 59]
< 50	CCC1Cc2ccc(C3=CCN(CC(=O)N4CC(O)C4)CC3)cc2C1N(C)c1nc(-c2ccc(Cl)cc2)c(C#N)s1 (centres unmarked) [Compound 60]
> 80	CN(C(=O)OCc1cc(Cl)cc(Cl)c1)c1coc2ccc(N3CCN(C(=O)CN4C(=O)CSC4=S)CC3)cc12 [Compound 66, 3,5-dichlorobenzyl methyl(5-(4-(2-(4-oxo-2-thioxothiazolidin-3-yl)acetyl)piperazin-1-yl)benzofuran-3-yl)carbamate]
